{"source": "paper PMC10983001", "about": "“Development of Cytotoxic GW7604-Zeise’s Salt Conjugates as Multitarget Compounds with Selectivity for Estrogen Receptor- Positive Tumor Cells” (Journal of Medicinal Chemistry, 2024)", "key": {"MCF-7 cells": {"test_system": "MCF-7 cells", "assay": "MTT assay of metabolic activity, MCF-7", "format": "cell-based, human", "conditions": "72 h, MTT; read-out: IC50 MCF-7", "experimental": "The GW7604-Alk-PtCl3 complexes (with exclusion of GW7604-Prop-PtCl3) were investigated for cytotoxic effects in SKBr3 (ER-negative, COX-2-positive, Figure 6), MCF-7 (ERα-positive, COX-negative, Figure 6), and noncancerous TSA-201 (human embryonal kidney) cells at concentrations of 10–30 μM using an established MTT (3-(4,5-dimethylthiazol-2-yl)-2,5-diphenyltetrazolium bromide) assay.[60],[69]\nAfter incubation for 72 h, the amounts of surviving, metabolically active cells were quantified based on their ability to transform the water-soluble yellow dye MTT to a purple formazan, which can be analyzed by UV–vis spectroscopy.\nThe exponentially growing cells were seeded at a density of 1750 (MCF-7), 2000 (SKBr3), and 1250 (TSA-201) cells/well into clear flat-bottom 96-well plates in triplicate. Following 24 h of incubation at 37 °C in a humidified atmosphere (5% CO2/95% air), the compounds [freshly prepared stock solutions in DMF, diluted with DMEM to the desired concentration (final DMF concentration of 0.1% (v/v))] were added to reach the indicated concentrations. After another 72 h of incubation, the cellular metabolic activity was measured employing an MTT assay. By adding predissolved MTT reagent in PBS at a final concentration of 0.5 mg/mL, the metabolic activity can be determined via an enzymatic conversion to a purple formazan salt. After 3 h, the medium was aspirated, and 200 μL of DMSO was added to dissolve the formed formazan crystals. The absorbance was measured at 570 and 690 nm (turbidity assessment) using an EnSpire plate reader (PerkinElmer, Waltham, MA, USA). Solvent-treated cells without a compound served as the positive control. Metabolic activity was calculated by the following equation [drawing 1]"}, "[1]": {"target": "T1, ERβ ligand-binding domain (Homo sapiens, UniProt Q92731)", "T1 construct": "purchased Invitrogen", "T1 sequence (Q92731 264-498 limits assumed)": "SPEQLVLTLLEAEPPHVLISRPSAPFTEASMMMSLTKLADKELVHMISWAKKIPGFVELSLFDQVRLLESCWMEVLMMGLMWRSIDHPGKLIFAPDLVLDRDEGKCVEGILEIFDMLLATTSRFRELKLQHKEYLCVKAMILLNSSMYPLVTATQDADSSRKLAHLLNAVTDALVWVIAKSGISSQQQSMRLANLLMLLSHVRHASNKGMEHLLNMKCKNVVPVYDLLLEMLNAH", "assay": "TR-FRET ligand binding assay, isolated LBD of ERβ", "experimental": "A modified LanthaScreen TR-FRET alpha/beta assay was performed, according to the manufacturer’s protocol (Invitrogen, Carlsbad, […]), to determine the binding affinity to the isolated LBD. […] Measurements were carried out on a multimode plate reader, Tecan Spark (Tecan, Männedorf, Switzerland). Calculations and visualization were performed with GraphPad Prism 8.0 (GraphPad Software, San Diego, CA, USA)."}, "nuclei of SKBr3 cells": {"test_system": "nuclei of SKBr3 cells", "assay": "Nuclear uptake (platinum by HR-CS-AAS), SKBr3", "format": "cell-based, human", "conditions": "SKBr3, 20 μM, 24 h", "experimental": "Fluorescence in the nuclei is not detectable. Therefore, the nuclei were analyzed for their platinum content using HR-CS-AAS.[25]\nAfter thawing of the cell/nuclei pellets, they were resuspended in ultrapure water (Siemens LaboStar, Günzburg, Germany; 300 μL) and lyzed with a sonotrode (Bandelin Sonoplus, Berlin, Germany; parameters 20 s, 9 cycles, 80% power). Graphite furnace (GF) AAS was used to quantify the lysates concerning their content of platinum (λ = 265.9450 nm). For this purpose, a contrAA 700 High-Resolution-Continous Source AAS (Analytik Jena, Jena, Germany) was employed, while atomization took place by electrothermal heating of graphite tubes with an inserted platform (Analytik Jena, Jena, Germany). […] The spectrometer was monitored with the ASpect CS software, version 2.3.1.0 (Analytik Jena, Jena, Germany). For all runs, the mean integrated absorbance was determined after three injections of each standard or sample. […] Each cell/nuclei lysate was quantified concerning its protein content following the method of Bradford[71] in order to express the uptake as the amount of compound (pmol) in the lysate relative to its protein mass (mg). […] All standards and lysates were measured in duplicate. After incubating for 5 min at rt, the absorbance (λ = 595 nm) was read on a microplate reader (Tecan Safire 2, Männedorf, Switzerland). […]"}}}
{"smiles": "CCC(=C(c1ccc(O)cc1)c1ccc(C=CC(=O)OCCC[CH]2[CH2][Pt-]2([Cl])([Cl])[Cl])cc1)c1ccccc1.[K+]", "note": "(mixture of isomers) [GW7604-Pent-PtCl3, Potassium trichlorido[η^2-(pent-4-en-1-yl (E)-3-(4-((E/Z)-1-(4-hydroxyphenyl)-2-phenylbut-1-en-1-yl)phenyl)acrylate)]platinate(II)]", "values": [{"measurement": "IC50", "setting": "MCF-7 cells", "value": 19.6, "unit": "µM"}, {"measurement": "RBA (ERβ)", "setting": "[1]; RBA(E2) = 100%", "value": 6.02, "unit": "%"}, {"measurement": "IC50", "setting": "[1]; read-out: IC50 (ERβ), displacement from the LBS", "value": 0.00399, "unit": "µM"}, {"measurement": "platinum content in the nuclei", "setting": "nuclei of SKBr3 cells", "value": 96, "unit": "pmol/mg"}]}
